Experiment [1] deals with T1, Motilin receptor (Homo sapiens, UniProt O43193). Nature of the experiment: Antagonist activity at MLNR (unknown origin).
In experiment [2] the target is T1, Motilin receptor. Nature of the experiment: Agonist activity at MLNR (unknown origin).
Experiment [3] deals with Growth hormone secretagogue receptor type 1 (Homo sapiens, UniProt Q92847). Put plainly: Agonist activity at GHSR (unknown origin).
Growth hormone secretagogue receptor type 1, sequence (Q92847 whole entry): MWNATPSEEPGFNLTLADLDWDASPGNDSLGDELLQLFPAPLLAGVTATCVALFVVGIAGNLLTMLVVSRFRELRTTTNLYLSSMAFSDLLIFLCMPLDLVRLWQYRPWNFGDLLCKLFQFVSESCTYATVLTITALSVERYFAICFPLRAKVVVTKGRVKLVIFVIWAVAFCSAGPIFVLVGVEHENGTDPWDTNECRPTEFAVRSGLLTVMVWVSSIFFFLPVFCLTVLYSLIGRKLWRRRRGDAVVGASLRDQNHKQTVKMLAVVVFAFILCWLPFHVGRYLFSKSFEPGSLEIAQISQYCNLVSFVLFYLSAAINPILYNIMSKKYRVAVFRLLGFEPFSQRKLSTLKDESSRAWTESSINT

T1 sequence (O43193 whole entry): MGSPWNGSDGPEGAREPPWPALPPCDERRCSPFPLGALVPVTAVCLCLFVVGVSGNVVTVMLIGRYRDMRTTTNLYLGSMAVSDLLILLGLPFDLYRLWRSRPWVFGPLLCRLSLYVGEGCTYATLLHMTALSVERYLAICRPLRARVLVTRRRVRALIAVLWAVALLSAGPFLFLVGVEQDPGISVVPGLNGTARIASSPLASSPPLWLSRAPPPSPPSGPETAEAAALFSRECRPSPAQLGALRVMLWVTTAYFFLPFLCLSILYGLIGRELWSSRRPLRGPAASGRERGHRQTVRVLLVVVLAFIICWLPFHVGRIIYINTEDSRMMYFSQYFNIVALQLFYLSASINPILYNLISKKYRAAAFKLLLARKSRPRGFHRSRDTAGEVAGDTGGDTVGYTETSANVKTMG

The term IC50 denotes the concentration needed to halve the response being measured. Compound `CC[C@H]1OC(=O)[C@H](C)[C@@H](O[C@H]2C[C@@](C)(OC)[C@@H](O)[C@H](C)O2)[C@H](C)[C@@H](O[C@@H]2O[C@H](C)C[C@H](N(C)C(C)C)[C@H]2O)[C@]2(C)CC(C)=C(O2)[C@H](C)C(=O)[C@]1(C)OC` showed an IC50 against Motilin receptor [1] of 3.98 nM.

One may read the Ki as the dissociation constant of the complex between target and ligand, obtained from inhibition or displacement. Read a high Ki as weaker binding. For the compound `CCNC(=O)[C@H](Cc1ccc(O)c(C(C)(C)C)c1)C(N)C(=O)[C@H](C(C)C)N(C)C(=O)[C@H](Cc1ccc(F)cc1)NC` (some centres undefined), the affinity at Motilin receptor [2], expressed as Ki, was 2.63 nM.

At Motilin receptor [1], `C[C@@H]1CN(Cc2ccc(-c3cccnc3C(=O)N3CCC(Nc4ccc(F)cc4)CC3)cc2)C[C@H](C)N1` showed an IC50 of 3.98 nM.

Broadly, the EC50 is the midpoint of the concentration-response curve. Higher therefore signals a less potent agent. The compound `COc1cccc(CCN(Cc2ccccc2-c2ccc(CN3C[C@@H](C)N[C@@H](C)C3)cc2)C(=O)NC2CCCCC2)c1` gave an EC50 in experiment [3] of 126 nM.

For the origin of these results see ChEMBL document CHEMBL2311398 (J Med Chem, 2013).
